In patent US9688666B2, “Lamivudine salts” (Tobira Therapeutics, Inc., priority 2013, dated 2017):

How the values were obtained:
Format in all cases: physicochemical
[1] = Gravimetric vapor sorption (GVS), hygroscopicity; settings: 25 degrees C, relative humidity 0% to 90% in 10% RH increments
Excerpt: A crystalline form can be characterized by gravimetric vapor sorption (GVS). A GVS plot can be a graph of weight gain or loss against relative humidity. The total weight gain or loss is often reported as a weight percent (wt %), the value of which allows for and includes an appropriate margin of error that can be represented by the symbol “±.” For example, a weight change of about 2.0±0.5% can refer to a range from about 2+0.5%, that is, 2.5%, to about […], that is, about 1.5%. Depending on the sample preparation technique, the calibration technique applied to the instrument, human operation variation, the nature of the particular instrument being used, and other factors known to the art, the appropriate margin of error for a weight gain or loss can be about ±2%, about ±1%, about ±0.75%, about ±0.5%, about ±0.25%, or less. Among other things, GVS can be useful for determining whether a crystalline form changes upon exposure to humidity.
Gravimetric vapor sorption plots were obtained on an ‘Iga Sorp’ vapor sorption balance manufactured by Hidden Analytical Instruments, which was calibrated according to manufacturer recommendations. Samples were dried by maintaining a 0% humidity until no additional weight change was measured. […] After equilibration, the weight change was measured, and the RH was then increased by 10% following the above-described equilibration procedure. […]

[2] = Storage stability at ambient temperature and humidity, XRPD before and after; settings: stored in a cupboard at ambient temperature and humidity for 16 weeks
Procedure: A sample of lamivudine hydrochloride polymorph Form II was analyzed by XRPD, and then stored in a cupboard at ambient temperature and humidity for 16 weeks, after which the sample was re-analyzed by XRPD. FIG. 32 compares the XRPD pattern obtained before storage (top pattern) and after 16 weeks of storage (middle pattern) with the XRPD pattern of lamivudine hydrochloride polymorph Form I obtained by the method of Example 1 (bottom pattern).

[3] = Competitive slurry of Form I/Form II mixture, product examined by XRPD; settings: 20 mg Form I + 20 mg Form II suspended in 400 μL acetone or 400 μL isopropanol, shaken at ambient temperature for 72 hours; same result in both cases
Procedure: A first mixture of 20 mg lamivudine hydrochloride polymorph Form I and 20 mg lamivudine hydrochloride polymorph Form II was suspended in 400 μL of acetone, and a second mixture of 20 mg lamivudine hydrochloride polymorph Form I and 20 mg lamivudine hydrochloride polymorph Form II was suspended in 400 μL isopropanol. Both mixtures were shaken at ambient temperature for 72 hours, after which the resulting product was examined by XRPD. In both cases, the resulting product an XRPD diffraction pattern substantially similar to that of FIG. 6.

Row | GVS reversible weight gain [1] | Structure (SMILES) | solid form stability on storage (XRPD) [2] | relative thermodynamic stability of polymorphs (form of product by XRPD) [3]
1 | ≤ 1% | Cl.Nc1ccn([C@@H]2CS[C@H](CO)O2)c(=O)n1 [listing 1 of 2 here] | – | –
2 | – | Cl.Nc1ccn([C@@H]2CS[C@H](CO)O2)c(=O)n1 [listing 2 of 2 here] | spontaneously converting to lamivudine hydrochloride polymorph Form I after 16 weeks of storage | less thermodynamically stable than, and transforming into, lamivudine hydrochloride polymorph Form I
